Data as given in patent US6436943B1 (dated 2002).

melting point | Structure (SMILES)
101 to 103 °C | CCOC(=O)C1=C(C)NC(c2ccccn2)=NC1c1ccccc1 (stereo not shown)
103 to 104 °C | COC(=O)C1=C(C)NC(c2ccccn2)=NC1c1ccccc1OC (stereo not shown)
100 to 101 °C | COC(=O)C1=C(C)NC(c2ccccn2)=NC1c1ccccc1C (stereo not shown)
141 to 143 °C | COC(=O)C1=C(C)NC(c2ccccn2)=NC1c1ccc(C#N)cc1 (stereo not shown)
101 to 103 °C | CCOC(=O)C1=C(C)NC(c2ccncc2)=NC1c1ccccc1Cl (stereo not shown)
175 to 176 °C | COC(=O)C1=C(C)NC(c2ccccn2)=NC1c1ccc(F)cc1[N+](=O)[O-] (stereo not shown)
108 to 109 °C | COC(=O)C1=C(C)NC(c2ccccn2)=NC1c1ccsc1 (stereo not shown)
93 to 95 °C | CC1=C(C(=O)OC(C)C)C(c2ccccc2Cl)N=C(c2ccccn2)N1 (stereo not shown)
149 to 150 °C | COC(=O)C1=C(C)NC(c2ccccn2)=NC1c1ccc(-n2ccnn2)cc1 (stereo not shown)
149 to 150 °C | COC(=O)C1=C(C)NC(c2ccccn2)=NC1C1CCCCC1.Cl (stereo not shown)
125 to 127 °C | COC(=O)C1=C(C)NC(c2ccccn2)=NC1c1cccc(Cl)c1Cl (stereo not shown)
172 to 173 °C | COC(=O)C1=C(C)NC(c2ccccn2)=NC1c1cccc2sc(-c3ccccc3)nc12 (stereo not shown)
176 to 178 °C | CCCCOC(=O)C1=C(C)NC(c2ccccn2)=NC1c1ccccc1Cl (stereo not shown)
131 to 133 °C | COC(=O)C1=C(C)NC(c2cccnc2)=NC1c1ccccc1Cl (stereo not shown)
151 to 153 °C | COC(=O)C1=C(C)NC(c2ccccn2)=NC1c1cc([N+](=O)[O-])ccc1Cl (stereo not shown)
167 to 168 °C | COC(=O)C1=C(C)NC(c2ccccn2)=NC1c1ccccc1[N+](=O)[O-] (stereo not shown)
201 to 202 °C | COC(=O)C1=C(C)NC(c2ccccn2)=NC1c1ccc(Cl)cc1 (stereo not shown)
122 to 123 °C | COOCC1=C(C)NC(c2ccccn2)=NC1c1cccc(Cl)c1 (stereo not shown)
179 to 180 °C | COOCC1=C(C)NC(c2ccccn2)=NC1c1cccc([N+](=O)[O-])c1 (stereo not shown)
138 to 139 °C | CC1=C(C(=O)OCCC#N)C(c2ccccc2Cl)N=C(c2ccccn2)N1 (stereo not shown)
217 to 218 °C | COC(=O)C1=C(C)NC(c2ccccn2)=NC1c1ccccc1F (stereo not shown)
122 to 124 °C | COOCC1=C(C)NC(c2ccccn2)=NC1c1ccco1 (stereo not shown)
105 to 110 °C | CCCOOCC1=C(C)NC(c2ccccn2)=NC1c1ccccc1Cl (stereo not shown)
131 to 132 °C | COOCC1=C(C)NC(c2ccccn2)=NC1c1ccccc1O (stereo not shown)
176 to 177 °C | COC(=O)C1=C(C)NC(c2ccccn2)=NC1c1cccc2ncc(-c3ccccc3)cc12 (stereo not shown)
